Measurements from US9201014B2, “Development of photostable near-IR cyanine dyes for in vivo imaging” (National University of Singapore, priority 2010, dated 2015).

How the values were obtained:
[1] = Absorbance and fluorescence maximum wavelengths and quantum yields of the CyNA library; format: physicochemical; details: for λabs, absorbance maximum wavelength / λem, fluorescence maximum wavelength: CyNA library; for φ, quantum yield: in DMSO, Cardiogreen as standard
Experimental: Since the k values of the different CyNA compounds indicated some dependency on the chemical structure of the amine, the CyNA scaffold was derivatized with a broad range of primary amines (FIGS. 4A-4C). The fluorescence properties of the 80-member CyNA library were measured. The absorption maximum wavelengths ranged from 802 nm to 806 nm, emission maximum wavelengths ranged from 817 nm to 823 nm, and the average quantum yield was approximately 0.10 (Table 2).
All the chemicals (building block amines plus others) and solvents were purchased from Sigma Aldrich, Alfa Aesar, Fluka, MERCK or Acros, and used without further purification. ^1H-NMR and ^13C-NMR spectra were recorded on Bruker Avance 300 NMR and 500 NMR spectrometers, and chemical shifts are expressed in parts per million (ppm). High-resolution mass spectrometry (HRMS) data was recorded on a Micromass VG 7035. Photobleaching experiments were performed using a UVP Blak-Ray® B-100AP high intensity UV lamp (100 W, 365 nm) Spectroscopic and quantum yield data were measured on a SpectraMax M2 spectrophotometer (Molecular Devices), and the data analysis was performed using GraphPrism 5.0. Photobleaching measurements were performed using an Eclipse Ti-U Nikon microscope (filter cube: 750/800) attached to Ti:sappire oscillator that operated in continuous wave mode, and the data was processed using the software NIS-Elements 3.10. In vivo images were taken in an IVIS Spectrum imaging system (Caliper Life Sciences).

[2] = Primary screening of photostability of the CyNA library (time-course fluorescence, 8 h); format: physicochemical; set-up: F/Fo, fluorescent intensity at 8 hours vs 0 hours: unit: %; details: 10 μM in HEPES 100 mM pH 7.4, 2% DMSO
Experimental: As a primary evaluation of photo stability, the decrease in fluorescence intensity of the 80 CyNA compounds was measured (see Table 2). The average decrease in fluorescence intensity after 8 hours of irradiation by a xenon lamp was approximately 18%. A subset of the most photostable compounds (i.e., F/Fo reported in Table 2 was greater than or equal to 95) was examined under stronger irradiation in various buffers.
10-μM CyNA solutions in 100 mM HEPES buffer (pH 7.4) containing 2% DMSO were placed in a 96-well black plate, and fluorescence intensity measurements were recorded every 10 minutes for a total period of 8 hours (excitation-emission: 790-820 nm). A subset of fourteen compounds selected according to their F8h/Fo quotients, quantum yields and maximum relative fluorescence units (RFU) values was further evaluated in a secondary screening

Row | Structure (SMILES) | λabs, absorbance maximum wavelength [1] | λem, fluorescence maximum wavelength [1] | φ, quantum yield [1] | F/Fo, fluorescent intensity at 8 hours vs 0 hours [2] | max RFU, maximum relative fluorescence units [2]
1 | CCCN1/C(=C/C=C2\CCCC(/C=C/C3=[N+](CCC)c4ccccc4C3(C)C)=C2N(C(C)=O)C2CCN(Cc3ccccc3)CC2)C(C)(C)c2ccccc21 [CyNA-107] | 803 nm | 820 nm | 0.07 | 50 | 275.3
2 | CCCN1/C(=C/C=C2\CCCC(/C=C/C3=[N+](CCC)c4ccccc4C3(C)C)=C2N(Cc2cccc(OC)c2OC)C(C)=O)C(C)(C)c2ccccc21 [CyNA-124] | 803 nm | 820 nm | 0.15 | 100 | 1334.2
3 | CCCN1/C(=C/C=C2\CCCC(/C=C/C3=[N+](CCC)c4ccccc4C3(C)C)=C2N(CCCCc2ccccc2)C(C)=O)C(C)(C)c2ccccc21 [CyNA-131] | 804 nm | 819 nm | 0.13 |  | 259.8
4 | CCCN1/C(=C/C=C2\CCCC(/C=C/C3=[N+](CCC)c4ccccc4C3(C)C)=C2N(CCCOCC)C(C)=O)C(C)(C)c2ccccc21 [CyNA-167] | 804 nm | 818 nm | 0.10 | 92 | 1031.8
5 | CCCN1/C(=C/C=C2\CCCC(/C=C/C3=[N+](CCC)c4ccccc4C3(C)C)=C2N(C(C)=O)C2CCCC2)C(C)(C)c2ccccc21 [CyNA-180] | 805 nm | 821 nm | 0.14 | 91 | 991.3
6 | CCCN1/C(=C/C=C2\CCCC(/C=C/C3=[N+](CCC)c4ccccc4C3(C)C)=C2N(Cc2ccc(OC)cc2OC)C(C)=O)C(C)(C)c2ccccc21 [CyNA-181] | 805 nm | 821 nm | 0.14 | 66 | 996.8
7 | CCCCC(CC)COCCCN(C(C)=O)C1=C(/C=C/C2=[N+](CCC)c3ccccc3C2(C)C)CCC/C1=C\C=C1\N(CCC)c2ccccc2C1(C)C (centres unmarked) [CyNA-193] | 806 nm | 822 nm | 0.12 |  | 58.7
8 | CCCN1/C(=C/C=C2\CCCC(/C=C/C3=[N+](CCC)c4ccccc4C3(C)C)=C2N(CCc2ccc(CC)cc2)C(C)=O)C(C)(C)c2ccccc21 [CyNA-201] | 803 nm | 820 nm | 0.08 | 33 | 52.6
9 | CCCN1/C(=C/C=C2\CCCC(/C=C/C3=[N+](CCC)c4ccccc4C3(C)C)=C2N(Cc2ccc(F)cc2)C(C)=O)C(C)(C)c2ccccc21 [CyNA-218] | 802 nm | 823 nm | 0.08 | 85 | 549.9
10 | CCCN1/C(=C/C=C2\CCCC(/C=C/C3=[N+](CCC)c4ccccc4C3(C)C)=C2N(C(C)=O)C2CCCCCCC2)C(C)(C)c2ccccc21 [CyNA-219] | 804 nm | 822 nm | 0.14 | 65 | 902.7
11 | CCCN1/C(=C/C=C2\CCCC(/C=C/C3=[N+](CCC)c4ccccc4C3(C)C)=C2N(Cc2ccc(Cl)cc2)C(C)=O)C(C)(C)c2ccccc21 [CyNA-221] | 803 nm | 820 nm | 0.07 | 86 | 382.6
12 | CCCCC(CC)CN(C(C)=O)C1=C(/C=C/C2=[N+](CCC)c3ccccc3C2(C)C)CCC/C1=C\C=C1\N(CCC)c2ccccc2C1(C)C (centres unmarked) [CyNA-230] | 805 nm | 822 nm | 0.09 | 80 | 77.7
13 | CCCN1/C(=C/C=C2\CCCC(/C=C/C3=[N+](CCC)c4ccccc4C3(C)C)=C2N(Cc2cc(OC)cc(OC)c2)C(C)=O)C(C)(C)c2ccccc21 [CyNA-262] | 803 nm | 822 nm | 0.10 | 81 | 816.5
14 | CCCN1/C(=C/C=C2\CCCC(/C=C/C3=[N+](CCC)c4ccccc4C3(C)C)=C2N(CCc2ccc(OC)c(OC)c2)C(C)=O)C(C)(C)c2ccccc21 [CyNA-266] | 804 nm | 823 nm | 0.08 | 99 | 541.8
15 | CCCN1/C(=C/C=C2\CCCC(/C=C/C3=[N+](CCC)c4ccccc4C3(C)C)=C2N(CCCOC(C)C)C(C)=O)C(C)(C)c2ccccc21 [CyNA-274] | 805 nm | 820 nm | 0.12 | 99 | 1209.5
16 | CCCN1/C(=C/C=C2\CCCC(/C=C/C3=[N+](CCC)c4ccccc4C3(C)C)=C2N(C(C)=O)C(C)CCc2ccccc2)C(C)(C)c2ccccc21 (centres unmarked) [CyNA-275] | 804 nm | 817 nm | 0.14 | 62 | 679.8
17 | CCCN1/C(=C/C=C2\CCCC(/C=C/C3=[N+](CCC)c4ccccc4C3(C)C)=C2N(CCN2CCOCC2)C(C)=O)C(C)(C)c2ccccc21 [CyNA-282] | 805 nm | 819 nm | 0.09 | 90 | 820.1
18 | CCCN1/C(=C/C=C2\CCCC(/C=C/C3=[N+](CCC)c4ccccc4C3(C)C)=C2N(Cc2ccc(OC)c(OC)c2)C(C)=O)C(C)(C)c2ccccc21 [CyNA-319] | 805 nm | 820 nm | 0.06 | 67 | 578.6
19 | CCCN1/C(=C/C=C2\CCCC(/C=C/C3=[N+](CCC)c4ccccc4C3(C)C)=C2N(Cc2ccccc2Br)C(C)=O)C(C)(C)c2ccccc21 [CyNA-329] | 806 nm | 821 nm | 0.10 | 99 | 348.8
20 | CCCN1/C(=C/C=C2\CCCC(/C=C/C3=[N+](CCC)c4ccccc4C3(C)C)=C2N(CCCc2ccccc2)C(C)=O)C(C)(C)c2ccccc21 [CyNA-335] | 804 nm | 821 nm | 0.06 | 50 | 167.9
21 | CCCN1/C(=C/C=C2\CCCC(/C=C/C3=[N+](CCC)c4ccccc4C3(C)C)=C2N(Cc2c(OC)cc(OC)cc2OC)C(C)=O)C(C)(C)c2ccccc21 [CyNA-336] | 804 nm | 820 nm | 0.11 | 85 | 827.7
22 | CCCN1/C(=C/C=C2\CCCC(/C=C/C3=[N+](CCC)c4ccccc4C3(C)C)=C2N(Cc2cccc(Br)c2)C(C)=O)C(C)(C)c2ccccc21 [CyNA-341] | 805 nm | 822 nm | 0.10 | 100 | 259.2
23 | CCCN1/C(=C/C=C2\CCCC(/C=C/C3=[N+](CCC)c4ccccc4C3(C)C)=C2N(CCc2ccc(O)cc2)C(C)=O)C(C)(C)c2ccccc21 [CyNA-346] | 804 nm | 822 nm | 0.07 | 69 | 434.2
